Measurements taken from patent US9505841B2, “Use of an anti-Ang2 antibody” (Samsung Electronics Co., Ltd., priority 2013, dated 2016).

Tests used:
LLC tumor = assay: Co-administration of anti-Ang2 antibody and cisplatin in LLC lung cancer animal model; assay type: in vivo, mouse; settings: LLC mice; antibody 10 mg/kg i.p. every three days, five times; cisplatin 3 mg/kg i.p. once; control Fc of IgG1
Method: The synergistic effect of co-treatment of antibody 10D6 and cisplatin was examined.
In particular, referring to Example 14, LLC tumor cells were subcutaneously injected into mice. When the size of tumors reached 50˜100 mm^3, anti-Ang2 antibody 10D6 was injected at the concentration of 10 mg/kg via an intraperitoneal injection every three days a total of five times. After administering antibody 10D6 twice, 3 mg/kg of cisplatin (Sigma-Aldrich) was intraperitoneally injected once. The size of tumor (V) was calculated using the following formula: Volume (V)=(width)2×length/2
For comparison, the same experiment was performed to a control group treated with Fc of IgG1 and a comparative group treated with antibody 4H10.
In addition, an experiment was performed to examine whether the synergistic effect obtained by co-administration of 10D6 and cisplatin as described above is due to the increased transporting efficiency of the administered cisplatin induced by the vascular normalization by treatment of 10D6. Cisplatin binds to DNA in a living body and induces crosslinking, thereby inducing cell death. Rat monoclonal anti-Cisplatin modified DNA (CP9/19) antibody (1:200, Abcam), which is capable of binding to DNA modified by cisplatin in tumor frozen sections, and hamster anti-CD31 antibody (1:200, Millipore), were used for immunofluorescence staining, and fluorescence images were obtained using LSM5 confocal microscope (Zeiss). In addition, to examine necrotic region, the tumor frozen sections were stained with H&E according to standard protocol, and then, Eosin+ cell region in tumor was observed. The obtained results are illustrated in FIG. 18C.

Tie2 receptor = assay: Tie2, Akt and 42/44 phosphorylation in HUVEC: antibody 10D6 versus 10D6 Fab; assay type: cell-based, human; settings: 60 nM 10D6 antibody or 10D6 Fab with 40 nM Ang2
Method: To see whether the activation of a Tie2 receptor is resulted from the dimerization of antibody 10D6, Fab fragments of antibody 10D6 were purified and then used for this experiment. The Fab fragments were obtained from antibody 10D6 using an Fab Preparation Kit (Pierce). As a digestion buffer, PBS containing 20 mM EDTA and 20 mM L-Cysteine was used, and the antibody was separated into Fab and Fc by the treatment with an immobilized papain at a room temperature for 2 hours. The Fc fragments were removed from the reaction solution using MabSelectSuRe column (GE Healthcare) to isolate and purify pure Fab fragments only.
HUVEC (ATCC) cells (1×10^6) were cultured in a 100 mm culture dish using EGM-2 (Lonza) media at 37° C. and when they reached 80˜90% confluency, the media were replaced with serum-free media (Lonza) and cultured at 37° C. for 6 to 16 hours. The dish was washed once with PBS and after the replacement with […] sodium orthovanadate (Sigma)-mixed serum free media (Lonza), they were further cultured for 10 min. After washed once with PBS, the cultured cells were treated with a mixture prepared by mixing 60 nM of 10D6 Ang2 antibody or 10D6 Fab with 40 nM of Ang2 protein (R&D systems) and letting them stand for 20 min. and further cultured for 10 min. […]

N.N.[Cl][Pt][Cl] [cisplatin, reference compound]
tumor size decreased by, compared to the control (LLC tumor): 17.6%

B1: 10D6 Fab: Fab fragments of antibody 10D6 obtained by immobilized papain digestion and removal of Fc (antibody, V domains shown)
VH: DVQLQESGPGLVKPSQSLSLTCTVTGYSITSDYAWNWIRQFPGNKLEWMGYINYSGNTDYNPSLKSRSSITRDTSKNQFFLQLNSVTTGDTATYYCARGNFEGAMDYWGQGTSVTVSS
VL: SIVMTQTPKFLLVSAGDRVTITCKASQSVSNDVAWYQQKPGQSPKLLIYYASNRYPGVPDRFTGSGYGTDFTFTISTVQAEDLAVYFCQQDYSSPWTFGGGTKLEIK
phosphorylation of Tie2, Akt and 42/44 (Tie2 receptor): activation was not observed
